Source: PubChem BioAssay AID2060504 (Molecular Pharmacology Branch, DTP, NCI, 2025)

Test system: 636577-100-R-J1-PDC complex spheroid viability
Test: Anticancer human tumor 636577-100-R-J1-PDC patient-derived endometrial adenocarcinoma cell line growth inhibition [GQUAD]
Settings: for IC50: curve of first compound; for viability, T/C: stronger effect = lower value
Summary of the method: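 Viability of tumor cells grown as complex spheroids with endothelial and stromal cells, exposed to drug combinations. Top concentration at or near clinical Cmax (else 10 microM), diluted in half-log increments.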

[1] = second compound 0.0316 µM, first compound 0.0316 µM
[2] = second compound 0.0316 µM, first compound 0.1 µM
[3] = second compound 0.0316 µM, first compound 0.316 µM
[4] = second compound 0.0316 µM, first compound 1 µM
[5] = second compound 0.0316 µM, first compound 3.16 µM
[6] = second compound 0.0316 µM, first compound 10 µM
[7] = second compound 0.1 µM, first compound 0.0316 µM
[8] = second compound 0.1 µM, first compound 0.1 µM
[9] = second compound 0.1 µM, first compound 0.316 µM
[10] = second compound 0.1 µM, first compound 1 µM
[11] = second compound 0.1 µM, first compound 3.16 µM
[12] = second compound 0.1 µM, first compound 10 µM
[13] = second compound 0.316 µM, first compound 0.0316 µM
[14] = second compound 0.316 µM, first compound 0.1 µM
[15] = second compound 0.316 µM, first compound 0.316 µM
[16] = second compound 0.316 µM, first compound 1 µM
[17] = second compound 0.316 µM, first compound 3.16 µM
[18] = second compound 0.316 µM, first compound 10 µM
[19] = second compound 1 µM, first compound 0.0316 µM
[20] = second compound 1 µM, first compound 0.1 µM
[21] = second compound 1 µM, first compound 0.316 µM
[22] = second compound 1 µM, first compound 1 µM
[23] = second compound 1 µM, first compound 3.16 µM
[24] = second compound 1 µM, first compound 10 µM
[25] = second compound 3.16 µM, first compound 0.0316 µM
[26] = second compound 3.16 µM, first compound 0.1 µM
[27] = second compound 3.16 µM, first compound 0.316 µM
[28] = second compound 3.16 µM, first compound 1 µM
[29] = second compound 3.16 µM, first compound 3.16 µM
[30] = second compound 3.16 µM, first compound 10 µM
[31] = second compound 10 µM, first compound 0.0316 µM
[32] = second compound 10 µM, first compound 0.1 µM
[33] = second compound 10 µM, first compound 0.316 µM
[34] = second compound 10 µM, first compound 1 µM
[35] = second compound 10 µM, first compound 3.16 µM
[36] = second compound 10 µM, first compound 10 µM
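Note: viability read after seven days of drug exposure.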
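Throughout, for viability, T/C: luminescence signal used as a proxy for viable cells; 100% = DMSO vehicle control wells.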

Work on CC1COCCN1c1cc(-c2ccnn2C)c2ccnc(-c3ccn[nH]3)c2n1 (stereo not drawn) + Cc1cnc(CNC(=O)c2c(=O)c3ccc(N4CCCN(C)CC4)nc3n3c2sc2ccccc23)cn1 yielded an IC50 (second compound 0.0316 µM) of under 31.6 nM, an IC50 (second compound 0.1 µM) of under 31.6 nM and an IC50 (second compound 0.316 µM) of under 31.6 nM. The IC50 (second compound 1 µM) was under 31.6 nM, the IC50 (second compound 3.16 µM) was under 31.6 nM and the IC50 (second compound 10 µM) was under 31.6 nM. It also gave a viability, T/C [1] of 31.9%, a viability, T/C [2] of 20.2% and a viability, T/C [3] of 18.4%. For the same molecule, the viability, T/C [4] was 9.61%, the viability, T/C [5] was 5.71% and the viability, T/C [6] was 3.77%. The viability, T/C [7] was 22.7%, the viability, T/C [8] was 19.2% and the viability, T/C [9] was 17.2%. For the same molecule, the viability, T/C [10] was 11.2%, the viability, T/C [11] was 6.18% and the viability, T/C [12] was 3.47%. For the same molecule, the viability, T/C [13] was 15.1%, the viability, T/C [14] was 19.7% and the viability, T/C [15] was 17.7%. For the same molecule, the viability, T/C [16] was 12.5%, the viability, T/C [17] was 6.51% and the viability, T/C [18] was 2.82%. The viability, T/C [19] was 17.9%, the viability, T/C [20] was 18.9% and the viability, T/C [21] was 15.6%. For the same molecule, the viability, T/C [22] was 14.7%, the viability, T/C [23] was 7.08% and the viability, T/C [24] was 3.42%. The viability, T/C [25] was 18.9%, the viability, T/C [26] was 17.4% and the viability, T/C [27] was 16.8%. For the same molecule, the viability, T/C [28] was 14%, the viability, T/C [29] was 7.38% and the viability, T/C [30] was 3.36%. It also gave a viability, T/C [31] of 16.8%, a viability, T/C [32] of 16.6% and a viability, T/C [33] of 17.2%. It also gave a viability, T/C [34] of 10.1%, a viability, T/C [35] of 6.54% and a viability, T/C [36] of 3.1%.
Work on O=C(NO)c1cnc(N2CCN(S(=O)(=O)c3ccc4ccccc4c3)CC2)nc1 + Cc1cnc(CNC(=O)c2c(=O)c3ccc(N4CCCN(C)CC4)nc3n3c2sc2ccccc23)cn1 yielded an IC50 (second compound 0.0316 µM) of under 31.6 nM, an IC50 (second compound 0.1 µM) of under 31.6 nM and an IC50 (second compound 0.316 µM) of under 31.6 nM. It also gave an IC50 (second compound 1 µM) of under 31.6 nM, an IC50 (second compound 3.16 µM) of under 31.6 nM and an IC50 (second compound 10 µM) of under 31.6 nM. For the same molecule, the viability, T/C [1] was 29.4%, the viability, T/C [2] was 20.2% and the viability, T/C [3] was 6.22%. For the same molecule, the viability, T/C [4] was 5.24%, the viability, T/C [5] was 0.21% and the viability, T/C [6] was 0.09%. It also gave a viability, T/C [7] of 24.2%, a viability, T/C [8] of 17.7% and a viability, T/C [9] of 6.24%. The viability, T/C [10] was 5.27%, the viability, T/C [11] was 0.47% and the viability, T/C [12] was 0.08%. The viability, T/C [13] was 20%, the viability, T/C [14] was 15.8% and the viability, T/C [15] was 6.06%. The viability, T/C [16] was 4.96%, the viability, T/C [17] was 0.17% and the viability, T/C [18] was 0.07%. It also gave a viability, T/C [19] of 21.5%, a viability, T/C [20] of 16.8% and a viability, T/C [21] of 6.11%. It also gave a viability, T/C [22] of 6.97%, a viability, T/C [23] of 0.05% and a viability, T/C [24] of 0.07%. It also gave a viability, T/C [25] of 16.3%, a viability, T/C [26] of 17.7% and a viability, T/C [27] of 9.78%. For the same molecule, the viability, T/C [28] was 3.81%, the viability, T/C [29] was 0.06% and the viability, T/C [30] was 0.08%. For the same molecule, the viability, T/C [31] was 21.6%, the viability, T/C [32] was 16.5% and the viability, T/C [33] was 10.8%. It also gave a viability, T/C [34] of 0.08%, a viability, T/C [35] of 0.09% and a viability, T/C [36] of 0.11%.
O=C(c1cc(Cc2n[nH]c(=O)c3ccccc23)ccc1F)N1CCN(C(=O)C2CC2)CC1 + Cc1[nH]c2ccc(F)cc2c1-c1nc2c3cccnc3c3ncccc3c2[nH]1 gave an IC50 (second compound 0.0316 µM) of 305 nM, an IC50 (second compound 0.1 µM) of 3060 nM and an IC50 (second compound 0.316 µM) of 2690 nM. For the same molecule, the IC50 (second compound 1 µM) was 5550 nM, the IC50 (second compound 3.16 µM) was under 31.6 nM and the IC50 (second compound 10 µM) was 3280 nM. For the same molecule, the viability, T/C [1] was 103%, the viability, T/C [2] was 79.4% and the viability, T/C [3] was 46.5%. For the same molecule, the viability, T/C [4] was 58.6%, the viability, T/C [5] was 50.4% and the viability, T/C [6] was 40.6%. For the same molecule, the viability, T/C [7] was 100%, the viability, T/C [8] was 96.5% and the viability, T/C [9] was 65.2%. For the same molecule, the viability, T/C [10] was 43.7%, the viability, T/C [11] was 67.6% and the viability, T/C [12] was 36.9%. For the same molecule, the viability, T/C [13] was 90.1%, the viability, T/C [14] was 75.3% and the viability, T/C [15] was 66.7%. It also gave a viability, T/C [16] of 61.6%, a viability, T/C [17] of 53.7% and a viability, T/C [18] of 32.4%. It also gave a viability, T/C [19] of 60.6%, a viability, T/C [20] of 65.7% and a viability, T/C [21] of 65.6%. It also gave a viability, T/C [22] of 57.9%, a viability, T/C [23] of 63.4% and a viability, T/C [24] of 37%. It also gave a viability, T/C [25] of 39.4%, a viability, T/C [26] of 40.7% and a viability, T/C [27] of 43.5%. The viability, T/C [28] was 43.3%, the viability, T/C [29] was 31.6% and the viability, T/C [30] was 29.9%. For the same molecule, the viability, T/C [31] was 34.6%, the viability, T/C [32] was 64.9% and the viability, T/C [33] was 57.3%. For the same molecule, the viability, T/C [34] was 41.9%, the viability, T/C [35] was 54% and the viability, T/C [36] was 33%.
Work on COc1cccc2c1C(=O)c1c(O)c3c(c(O)c1C2=O)CC(O)(C(=O)CO)CC3OC1CC(N)C(O)C(C)O1 (stereo not drawn) + CN(C)c1ccc(Nc2c3ccc(NC(=O)CCN4CCCC4)cc3nc3cc(NC(=O)CCN4CCCC4)ccc23)cc1 yielded an IC50 (second compound 0.0316 µM) of under 31.6 nM, an IC50 (second compound 0.1 µM) of under 31.6 nM and an IC50 (second compound 0.316 µM) of under 31.6 nM. For the same molecule, the IC50 (second compound 1 µM) was under 31.6 nM, the IC50 (second compound 3.16 µM) was under 31.6 nM and the IC50 (second compound 10 µM) was under 31.6 nM. The viability, T/C [1] was 28%, the viability, T/C [2] was 17.2% and the viability, T/C [3] was 15.3%. It also gave a viability, T/C [4] of 7.48%, a viability, T/C [5] of 0.17% and a viability, T/C [6] of 0.58%. For the same molecule, the viability, T/C [7] was 27.2%, the viability, T/C [8] was 15.9% and the viability, T/C [9] was 15.3%. The viability, T/C [10] was 7.46%, the viability, T/C [11] was 0.12% and the viability, T/C [12] was 0.61%. For the same molecule, the viability, T/C [13] was 28%, the viability, T/C [14] was 18.6% and the viability, T/C [15] was 12.9%. For the same molecule, the viability, T/C [16] was 7.67%, the viability, T/C [17] was 0.2% and the viability, T/C [18] was 0.5%. The viability, T/C [19] was 25%, the viability, T/C [20] was 18.6% and the viability, T/C [21] was 13.3%. It also gave a viability, T/C [22] of 7.58%, a viability, T/C [23] of 0.13% and a viability, T/C [24] of 0.47%. It also gave a viability, T/C [25] of 19.4%, a viability, T/C [26] of 17.2% and a viability, T/C [27] of 10.8%. It also gave a viability, T/C [28] of 3.65%, a viability, T/C [29] of 0.16% and a viability, T/C [30] of 0.34%. For the same molecule, the viability, T/C [31] was 4.99%, the viability, T/C [32] was 3.27% and the viability, T/C [33] was 1.84%. It also gave a viability, T/C [34] of 0.34%, a viability, T/C [35] of 0.19% and a viability, T/C [36] of 0.27%.
